target: Neuronal acetylcholine receptor; test: Ability to displace [3H](-)-cytisine from nicotinic acetylcholine receptor (nAChR) in a whole rat brain preparation

Structure (SMILES) | Ki [nM]
COc1ccc(C2CCCN2C)cc1OC (configuration not stated) | 9700
COc1cccc(C2CCCN2C)c1 (configuration not stated) | 597
CN1CCCC1c1ccc(C(F)(F)F)cc1 (configuration not stated) | 931
CN1CCCC1c1ccc(F)c(F)c1 (configuration not stated) | 420
CN1CCCC1c1cccc(Cl)c1 (configuration not stated) | 227
CN1CCCC1c1ccc(Cl)c(Cl)c1 (configuration not stated) | 68
COc1ccc(C2CCCN2C)cc1 (configuration not stated) | 707
Cc1cccc(C2CCCN2C)c1 (configuration not stated) | 719
Clc1ccc(C2=NCCC2)cc1 | > 10000
CN1CCCC1c1ccc2c(c1)OCO2 (configuration not stated) | 46
CN1CCCC1c1ccc(Br)cc1 (configuration not stated) | 75
COc1cc(C2CCCN2C)ccc1O (configuration not stated) | 8250
Fc1cccc(C2=NCCC2)c1 | > 10000
CN1CCCC1c1ccc(F)cc1 (configuration not stated) | 207
COc1ccccc1C1CCCN1C (configuration not stated) | > 10000
Cc1ccc(C2CCCN2C)cc1 (configuration not stated) | 1330
Cc1ccccc1C1CCCN1C (configuration not stated) | 9000
CN1CCCC1c1ccc(Cl)cc1 (configuration not stated) | 164
CN1CCCC1c1ccc2c(c1)OCCO2 (configuration not stated) | 1220
c1ccc(C2CCCN2)cc1 (configuration not stated) | 8700
CN1CCCC1c1cccc(F)c1 (configuration not stated) | 399
COc1cc2c(cc1O)CCN1CC=C3C=C[C@H](OC)C[C@]321 [ERYSODINE] | 5

Reference: ChEMBL document CHEMBL1152023, “Phenyl pyrrolidine analogues as potent nicotinic acetylcholine receptor (nAChR) ligands” (Bioorg Med Chem Lett, 1995)
